The text below walks through data of US20240426776A1, “RAPID DIFFERENTIATION OF ANTIBIOTIC-SUSCEPTIBLE AND -RESISTANT BACTERIA THROUGH MEDIATED EXTRACELLULAR ELECTRON TRANSFER” (priority 2021, published 2024).

Structures are written as SMILES. Where “and” joins values, the source holds several entries; their conditions need not be identical. Identical values can stand only once. Marks after values point to notes of the source that are not given here. Bounds are passed on as bounds.

The subject of assay [1] is Gram-negative 1 AR55 and Gram-negative 2 AR58. Put plainly: Standard procedure confirming blinded test (susceptibility, MIC, analysis time). The arrangement: key to Standard procedure susceptibility or resistance (second symbol of cell): S: The standard procedure established susceptibility or resistance; R: The standard procedure established susceptibility or resistance. It counts as cell-based. As to the method:
(§1) Both Gram-positive strains were correctly classified using 2×(12 μg/mL oxacillin) in <120 min (97±45 min and 103±33 min). The Gram-negative strains were also correctly classified after increasing concentrations of imipenem from 2× to 20×(12 to 120 μg/mL imipenem). […] These phenotypic results were confirmed with results of standard procedure known to those skilled in the art and are included in Table 4 below, wherein READAS(S) susceptibility was defined by an ASIn≥0.4; (R) resistant was defined by an ASIn<0.4; analysis time shown in minutes. The standard procedure established susceptibility or resistance, MIC in μg/mL, and analysis time shown in hours.

For assay [2] the test system is unchanged. Kind of assay: READAS operator blinded test. It counts as cell-based. To be noted: for ASIn: imipenem increased from 2× to 20× (12 to 120 μg/mL), OD600=0.1; for READAS susceptibility (first symbol of cell): imipenem up to 20× (120 μg/mL). As for the experimental part: Tests were conducted for which the species or resistance phenotype was not known beyond the fact that one set was a Gram-positive and the other Gram-negative, and the antibiotics to be tested were oxacillin and imipenem, respectively. The isolates were provided as coded streak plates. Because the species were unknown, the breakpoint concentration of oxacillin and imipenem were estimated from the known breakpoints of the four previously tested strains (as shown in Table 1; 6 μg/mL for oxacillin, S. aureus and 6 μg/mL imipenem for Gram-negative strains). Following the decision methodology for determining antibiotic susceptibility and resistance of READAS, the strains were first tested with 2× the resistance breakpoint concentration (12 μg/mL oxacillin or imipenem) and the ASI2 was measured. This was increased up to 24× the resistance breakpoint concentration. If ASI2≥0.4 then the strain was considered susceptible. […] If neither strain achieved an ASI2≥0.4, 24× the resistance breakpoint concentration was tested and the ASI24 was measured.
As another example method of operation, operator blinded tests were conducted using susceptible and resistant strains of Gram-positive and -negative bacteria. Because the species identification was unknown, […] oxacillin was chosen as the estimated resistance breakpoint for the Gram-positive strain and 6 μg/mL imipenem was initially chosen as the resistance breakpoint for the Gram-negative strain. The stains selected for this example method of operation include Gram-positive 1 ATCC 29213, Gram-positive 2 BAA-1026, Gram-negative 1 AR55 and Gram-negative 2 AR58 with cultures of OD600=0.1, for simplicity.
as §1

For assay [3], the system named is Escherichia coli (strains 61 and 77). The conditions noted are these: cited from earlier work.
Assay [4] concerns Staphylococcus aureus (strains 29213 and 43300). Put plainly: READAS electrochemical current response with PMS mediator (ASIn). It counts as cell-based. The conditions noted are these: for ASIn (antibiotic susceptibility index), single replicates: tobramycin 10× breakpoint (160 μg/mL), ASI10, 15 μM PMS, 0.1 OD600. As for the experimental part: Each measurement was replicated at least four times.
(S. aureus experiments) or 37° C. (all others) MH media.
The current responses measured follows a sigmoidal curve structure.
As a second example method of operation, the S. aureus strains selected from Table 2 were assessed. Initially, a 2×CLSI resistance breakpoint concentrations for two antibiotics oxacillin (12 μg/mL) and tobramycin (32 μg/mL) were used for the example method of operation. The ASI2<0.4 and it was concluded that the concentration of the antibiotics was insufficient to classify the strains as antibiotic-susceptible or -resistant. S. aureus was then treated with 4×, 6×, 8×, 10×, and 20× the breakpoint concentration of oxacillin and was compared to the control as depicted in FIG. 8A. […] S. aureus was also treated with 4× and 10× the breakpoint concentration of tobramycin and was compared to the control depicted in FIG. 8B. […] The efficacy of antibiotic was proportional to the concentration when a high cell density (1.1×10^8 CFU/mL) was used.
The ASIn analysis time for classifying the strains as resistant or susceptible for tobramycin treatment was 33-78 min which was 30 min less than needed for detecting oxacillin susceptibility which required 60-96 min.

Assay [5] has the same test system. The conditions noted are these: cited from earlier work.

As to `C[C@@H](O)[C@H]1C(=O)N2C(C(=O)O)=C(SCCN=CN)C[C@H]12` [Imipenem, imipenem], in assay [1] (Gram-negative 1 (AR55)), the minimum inhibitory concentration (MIC) is at least 16 µg/mL and the “Standard procedure susceptibility or resistance (second symbol of cell)” value is recorded as “R/R”. Further, in assay [1] (Gram-negative 2 (AR58)), the minimum inhibitory concentration (MIC) is at most 0.25 µg/mL and the “Standard procedure susceptibility or resistance (second symbol of cell)” value is recorded as “S/S”. For the same compound, in assay [2] (Gram-negative 1 (AR55)), the ASIn is recorded as 0.1 ± 0.23^c and the “READAS susceptibility (first symbol of cell)” value was “R/R ((R) resistant was defined by an ASIn<0.4)”. Besides, in assay [2] (Gram-negative 2 (AR58)), the ASIn was 0.99 ± 0.01^c and the “READAS susceptibility (first symbol of cell)” value is recorded as “S/S (READAS(S) susceptibility was defined by an ASIn≥0.4)”.

Consider `NC[C@H]1O[C@H](O[C@H]2[C@H](O)[C@@H](O[C@H]3O[C@H](CO)[C@@H](O)[C@H](N)[C@H]3O)[C@H](N)C[C@@H]2N)[C@H](N)C[C@@H]1O` [Tobramycin, tobramycin], for which the “CLSI guidelines (resistance breakpoint) for the species” value in assay [3] and in assay [5] was 16 µg/mL in each case. Further, in assay [4] (oxacillin 4×, 6×, 8×, 10×, 20× breakpoint (FIG. 8A), tobramycin 4× and 10× (FIG. 8B), […]10^8 CFU/mL), the “current response with increasing antibiotic concentration” value is “decreased the current magnitude to ASIn≥0.4 and increased the response time”. The “ASIn (antibiotic susceptibility index), single replicates” value in assay [4] (strain 29213 (susceptible)) was 0.52 and 0.6 and 0.16 and 0.34; in assay [4] (strain 43300 (resistant)) it was 0.12 and −0.01 and −0.42. Besides, in assay [4] (strain 43300 (resistant), tobramycin 10× (160 μg/mL)), the “average ASI10 (±SE)” value is reported as −0.10±0.14.
